The structures appear in SMILES notation. Like-named read-outs stand apart in the source and are kept apart here.

Experiment [1] concerns the target T1, HpHtrA (Helicobacter pylori, UniProt G2J5T2).
T1 construct: (HpHtrA, G18-K475, UniProt G2J5T2); GST (N, cleaved yes); made in house; host or cells: E. coli BL21
T1 sequence (G2J5T2 18-475): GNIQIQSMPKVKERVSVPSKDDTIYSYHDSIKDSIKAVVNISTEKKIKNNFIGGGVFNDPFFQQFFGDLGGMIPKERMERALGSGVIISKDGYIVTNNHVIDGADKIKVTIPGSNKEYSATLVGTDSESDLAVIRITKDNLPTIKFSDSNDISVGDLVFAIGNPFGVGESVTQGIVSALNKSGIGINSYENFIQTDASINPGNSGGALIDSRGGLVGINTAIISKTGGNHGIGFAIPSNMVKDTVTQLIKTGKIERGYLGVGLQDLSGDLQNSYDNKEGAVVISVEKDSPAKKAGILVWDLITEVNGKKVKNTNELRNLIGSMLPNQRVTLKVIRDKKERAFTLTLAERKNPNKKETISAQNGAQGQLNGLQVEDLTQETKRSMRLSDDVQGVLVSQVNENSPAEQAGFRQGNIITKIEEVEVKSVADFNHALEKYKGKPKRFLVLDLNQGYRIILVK
Description: in vitro E-cadherin (hCdh1) cleavage by HpHtrA (Western blot). In kind it is biochemical. As to conditions: 50 ng hCdh1, 250 ng HpHtrA, 16 h, 37 °C; for effect on HpHtrA-mediated hCdh1 cleavage/fragmentation: 1 mM. An excerpt:
(§1) The proteins were separated by SDS-PAGE and visualized by staining with Coomassie Brilliant Blue G250 (Lactan, Vienna, Austria). […] Proteins were separated using SDS-PAGE and blotted onto a nitrocellulose membrane. Human Cdh1 was detected by an antibody recognizing the EC5 domain of hCdh1 (Abcam, Cambridge, UK) and a polyclonal serum was used to detect HpHtrA[22]. Independent experiments were repeated at least three times.

Experiment [2] concerns the target T2, HpHtrA wt (Helicobacter pylori, UniProt G2J5T2).
T2 sequence (G2J5T2 18-475): T1 sequence (G2J5T2 18-475)
Description: HpHtrA oligomerization, non-reducing SDS-PAGE. The arrangement: (HpHtrA, G18-K475, UniProt G2J5T2); GST (N, cleaved yes); made in house; host or cells: E. coli BL21. As to the method: Non-reducing sample buffer without β-mercaptoethanol was added and the samples were separated by SDS-PAGE containing 0.1% casein (Carl Roth, Karlsruhe, Germany) as a substrate. The gel was incubated for 60 min in renaturing buffer (2.5% Triton X-100) and equilibrated for 30 min in developing buffer (50 mM Tris–HCl, pH 7.4, 200 mM NaCl, 5 mM CaCl2, and 0.02% Brij-35) at room temperature under gentle agitation. Afterwards, the gel was incubated for 24 h at 37 °C in developing buffer under gentle agitation. To visualize caseinolytic activity, the gel was stained in 0.5% Coomassie Brilliant Blue R250 (Carl Roth, Karlsruhe, Germany). For detection of multimers by SDS-PAGE, HpHtrA was separated by SDS-PAGE under non-reducing conditions. Proteins were visualized by staining with Coomassie Brilliant Blue G250. Independent experiments were repeated at least four times.

Experiment [3] deals with T1, HpHtrA. In words: in vitro casein cleavage by HpHtrA (Coomassie SDS-PAGE). In kind it is biochemical. The following applies: 10 µg casein, 250 ng HpHtrA, 16 h, 37 °C; for effect on HtrA-mediated casein degradation: 1 mM.
From the text: as §1

The target of experiment [4] is T1, HpHtrA. Description: FRET peptide assay of HpHtrA activity. The format is biochemical. The following applies: 5 µM FRET peptide, 250 nM HpHtrA, 37 °C, 50 mM HEPES pH 7.4, read-out: IC50 of HpHtrA inhibition. The source says: For the establishment of a FRET-based assay for the quantification of the HpHtrA activity, the 2-Abz/3-nitrotyrosine FRET pair[53]–[55] was introduced into the sequence AQRVAF: the fluorophore (2-Abz, Ex/Em 320/435 nm) was coupled at the N-terminus, whereas the quencher (3-nitrotyrosine, Ex 425 nm[56]) was positioned at the C-end. The FRET activity of this peptide was first confirmed by measuring the fluorescence emission in the range 400–450 nm before and after the trypsin-mediated cleavage of the peptide bond R_V (Fig. S3). The measurements were performed in a black, flat-bottom 96-well plate (Nunc, Thermo Scientific, Schwerte, Germany) at 37 °C. 5 µM of the peptide were incubated with 250 nM HpHtrA and 125 nM trypsin in 50 mM HEPES buffer (pH 7.4). […] Cleavage of the peptide leads to increasing fluorescence, which was measured in a plate reader (Infinite 200 PRO, TECAN, Groedig, Austria) with a filter setting of 320 nm/425 nm (Ex/Em). Statistical analysis was performed with GraphPad Prism software (Vers. 8.0.2). […] Three independent experiments containing three technical replicates were analyzed for every sample. Significance is indicated as non-significant (ns) for p > 0.05, * for p < 0.05, ** for p < 0.01, *** for p < 0.001, and **** for p < 0.0001.

As a reminder, the IC50 is the concentration that gives 50% inhibition. Consider `[Cu+2]` [Cu^++, CuCl2], for which the “effect on HpHtrA-mediated hCdh1 cleavage/fragmentation” value in experiment [1] is reported as “strongly decreased”. Further, the “stabilization of HpHtrA wt oligomers” value in experiment [2] (low concentrations, Coomassie-stained SDS-PAGE, non-reducing) is listed as “only slightly stabilized”. Besides, in experiment [3], the “concentration giving a slight inhibitory effect on casein cleavage” value is listed as 250 µM and the “effect on HtrA-mediated casein degradation” value was “strongly inhibited”. Further, the IC50 in experiment [4] (after 15 min) was 295 nM. The half-maximal inhibitory concentration (IC50) in experiment [4] (after 180 min) is 937 nM.
With `[Zn+2]` [Zn^++, ZnCl2], in experiment [1], the “concentration that clearly inhibited HpHtrA-mediated hCdh1 fragmentation” value stood at 50 µM and the “effect on HpHtrA-mediated hCdh1 cleavage/fragmentation” value was “strongly decreased”. In addition, in experiment [2] (Coomassie-stained gel, non-reducing conditions), the “concentration sufficient to enhance oligomerization or the stability of HpHtrA” value is given as 50 µM. In experiment [3], the “concentration giving a slight inhibitory effect on casein cleavage” value was found to be 250 µM and the “effect on HtrA-mediated casein degradation” value is “strongly inhibited”. Further, the IC100 in experiment [3] (read-out: concentration required to fully inhibit casein cleavage) was in the range of 500 to 1000 µM. In experiment [4] (after 15 min), the IC50 stood at 650 nM. Further, the IC50 in experiment [4] (after 180 min) stood at 2570 nM.

For the origin of these results see paper PMC7324608 (Scientific Reports, 2020).
